The subject of data set [1] is Staphylococcus aureus. Kind of data set: Antibacterial activity against PVL-positive and non-typable methicillin-resistant Staphylococcus aureus 1110301981H-T034 after 24 hrs by broth dilution method. Type of data set: functional. In general terms: Dilution methods test growth across graded concentrations, often in twofold steps.
The subject of data set [2] is Staphylococcus aureus. Kind of data set: Antibacterial activity against PVL-deficient and non-typable methicillin-resistant Staphylococcus aureus N133-T034 after 24 hrs by broth dilution method. Type of data set: functional. As to conditions: N133-T034, 24 h.
Data set [3] has as its system Staphylococcus aureus. Briefly: Antibacterial activity against PVL-deficient and non-typable methicillin-resistant Staphylococcus aureus N229-T034 after 24 hrs by broth dilution method. As to conditions: N229-T034, 24 h. Type of data set: functional.
Another data set relates to Bacillus cereus. Kind of data set: Antibacterial activity against Bacillus cereus ATCC 11778 after 24 hrs by broth dilution method. It counts as functional. As to conditions: ATCC 11778, 24 h.
Another data set has as its system Pseudomonas aeruginosa. Kind of data set: Antibacterial activity against Pseudomonas aeruginosa ATCC 27853 after 24 hrs by broth dilution method. Type of data set: functional. As to conditions: ATCC 27853, 24 h.
In the next data set the test system is Escherichia coli. Briefly: Antibacterial activity against Escherichia coli ATCC 25922 after 24 hrs by broth dilution method. Type of data set: functional. Conditions: ATCC 25922, 24 h.
The subject of data set [4] is Staphylococcus epidermidis. Kind of data set: Antibacterial activity against Staphylococcus epidermidis ATCC 12228 after 24 hrs by broth dilution method. As to conditions: ATCC 12228, 24 h. Type of data set: functional.
Data set [5] has as its system Staphylococcus aureus. Kind of data set: Antibacterial activity against Staphylococcus aureus ATCC 29213 after 24 hrs by broth dilution method. Type of data set: functional. As to conditions: ATCC 29213, 24 h.
Data set [6] in a line: Toxicity in human erythrocytes assessed as concentration required to achieve 100% hemolysis after 4 hrs. It counts as cell-based. Conditions: erythrocyte.
A further data set deals with Enterococcus faecalis. Briefly: Antibacterial activity against Enterococcus faecalis ATCC 29212 after 24 hrs by broth dilution method. It counts as functional. Conditions: ATCC 29212, 24 h.
Data set [7] relates to Staphylococcus aureus. Kind of data set: Antibacterial activity against PVL-positive and non-typable methicillin-resistant Staphylococcus aureus USA300-1110301146 after 24 hrs by broth dilution method. Type of data set: functional. As to conditions: USA300-1110301146, 24 h.

≈ marks a conversion by molar mass, not a printed value.

For orientation: MIC means the lowest concentration found to suppress growth. Low values mean inhibition by little substance, high ones a need for much substance.

`CC(C)(C)C[C@@H]1NC(=O)[C@H](CCCN)NC(=O)[C@@H]2CCCN2C(=O)[C@@H](Cc2ccccc2)NC(=O)[C@H](CCCN)NC(=O)[C@H](CC(C)(C)C)NC(=O)[C@H](CCCN)NC(=O)[C@@H]2CCCN2C(=O)[C@@H](Cc2ccccc2)NC(=O)[C@H](CCCN)NC1=O`: the minimum inhibitory concentration (MIC) was greater than 64 µg/mL in the data set with Staphylococcus aureus [1]; greater than 64 µg/mL in the data set on Staphylococcus aureus [2]; greater than 64 µg/mL against Staphylococcus aureus [3]; greater than 64 µg/mL in the data set on Bacillus cereus; 64 µg/mL (≈ 53.4 µM) against Pseudomonas aeruginosa; greater than 64 µg/mL with Escherichia coli. Further, the minimal inhibitory concentration (MIC) in data set [4] is 16 µg/mL (≈ 13.3 µM); against Staphylococcus aureus [5], greater than 64 µg/mL; in the data set with Enterococcus faecalis, greater than 64 µg/mL; against Staphylococcus aureus [7], greater than 64 µg/mL. In [6], the Activity is greater than 500 µM.

`CC(C)(C)[C@@H]1NC(=O)[C@H](CCCN)NC(=O)[C@@H]2CCCN2C(=O)[C@@H](Cc2ccccc2)NC(=O)[C@H](CCCN)NC(=O)[C@H](C23CC4CC(CC(C4)C2)C3)NC(=O)[C@H](CCCN)NC(=O)[C@@H]2CCCN2C(=O)[C@@H](Cc2ccccc2)NC(=O)[C@H](CCCN)NC1=O`: the minimal inhibitory concentration (MIC) in the data set with Staphylococcus aureus [1] is 64 µg/mL (≈ 51.2 µM); in the data set on Staphylococcus aureus [2], 64 µg/mL (≈ 51.2 µM); against Staphylococcus aureus [3], 64 µg/mL (≈ 51.2 µM); against Bacillus cereus, 32 µg/mL (≈ 25.6 µM); in the data set with Pseudomonas aeruginosa, 32 µg/mL (≈ 25.6 µM); against Escherichia coli, 32 µg/mL (≈ 25.6 µM). The MIC was 4 µg/mL (≈ 3.2 µM) in [4], 64 µg/mL (≈ 51.2 µM) against Staphylococcus aureus [5], greater than 64 µg/mL in the data set with Enterococcus faecalis and 64 µg/mL (≈ 51.2 µM) against Staphylococcus aureus [7]. For the same compound, in data set [6], the Activity was greater than 500 µM.

Regarding `CC(C)(C)C[C@@H]1NC(=O)[C@H](CCCN)NC(=O)[C@@H]2CCCN2C(=O)[C@@H](Cc2ccccc2)NC(=O)[C@H](CCCN)NC(=O)[C@H](CC23CC4CC(CC(C4)C2)C3)NC(=O)[C@H](CCCN)NC(=O)[C@@H]2CCCN2C(=O)[C@@H](Cc2ccccc2)NC(=O)[C@H](CCCN)NC1=O`, the minimum inhibitory concentration (MIC) turned out to be 16 µg/mL (≈ 12.5 µM) in the data set on Staphylococcus aureus [1]; 16 µg/mL (≈ 12.5 µM) in the data set on Staphylococcus aureus [2]; 16 µg/mL (≈ 12.5 µM) against Staphylococcus aureus [3]; 4 µg/mL (≈ 3.13 µM) against Bacillus cereus; 16 µg/mL (≈ 12.5 µM) in the data set with Pseudomonas aeruginosa; 16 µg/mL (≈ 12.5 µM) in the data set on Escherichia coli. Besides, the minimum inhibitory concentration (MIC) in [4] is 4 µg/mL (≈ 3.13 µM); against Staphylococcus aureus [5], 16 µg/mL (≈ 12.5 µM); in the data set with Enterococcus faecalis, 32 µg/mL (≈ 25 µM); in the data set with Staphylococcus aureus [7], 16 µg/mL (≈ 12.5 µM). The Activity in data set [6] came out at 500 µM.

As to `CCCCCCCCCC[C@@H]1NC(=O)[C@H](CCCN)NC(=O)[C@@H]2CCCN2C(=O)[C@@H](Cc2ccccc2)NC(=O)[C@H](CCCN)NC(=O)[C@H](C(C)C)NC(=O)[C@H](CCCN)NC(=O)[C@@H]2CCCN2C(=O)[C@@H](Cc2ccccc2)NC(=O)[C@H](CCCN)NC1=O`, the MIC came out at 16 µg/mL (≈ 12.9 µM) in the data set with Staphylococcus aureus [1]; 8 µg/mL (≈ 6.44 µM) against Staphylococcus aureus [2]; 8 µg/mL (≈ 6.44 µM) in the data set with Staphylococcus aureus [3]; 4 µg/mL (≈ 3.22 µM) in the data set with Bacillus cereus; 16 µg/mL (≈ 12.9 µM) against Pseudomonas aeruginosa; 16 µg/mL (≈ 12.9 µM) in the data set with Escherichia coli. Also, the MIC in [4] was 8 µg/mL (≈ 6.44 µM); in the data set with Staphylococcus aureus [5], 16 µg/mL (≈ 12.9 µM); in the data set with Enterococcus faecalis it was 16 µg/mL (≈ 12.9 µM); with Staphylococcus aureus [7] it was 8 µg/mL (≈ 6.44 µM). In data set [6], the Activity is 500 µM.

Take `CC(C)C[C@@H]1NC(=O)[C@H](CCCN)NC(=O)[C@@H]2CCCN2C(=O)[C@@H](Cc2ccccc2)NC(=O)[C@H](CCCN)NC(=O)[C@H](CC23CC4CC(CC(C4)C2)C3)NC(=O)[C@H](CCCN)NC(=O)[C@@H]2CCCN2C(=O)[C@@H](Cc2ccccc2)NC(=O)[C@H](CCCN)NC1=O`: the MIC was 64 µg/mL (≈ 50.6 µM) with Staphylococcus aureus [1]; 32 µg/mL (≈ 25.3 µM) with Staphylococcus aureus [2]; 32 µg/mL (≈ 25.3 µM) in the data set with Staphylococcus aureus [3]; 16 µg/mL (≈ 12.7 µM) against Bacillus cereus; 16 µg/mL (≈ 12.7 µM) in the data set with Pseudomonas aeruginosa; 64 µg/mL (≈ 50.6 µM) against Escherichia coli. The minimum inhibitory concentration (MIC) in data set [4] is 4 µg/mL (≈ 3.17 µM); in the data set on Staphylococcus aureus [5], 64 µg/mL (≈ 50.6 µM); against Enterococcus faecalis, 64 µg/mL (≈ 50.6 µM); in the data set with Staphylococcus aureus [7], 32 µg/mL (≈ 25.3 µM). Besides, the Activity in data set [6] was greater than 500 µM.

(Values after ChEMBL document CHEMBL2146376, “'Inverted' analogs of the antibiotic gramicidin S with an improved biological profile” (Bioorg Med Chem, 2012).)
